For 24 compounds, IC50 results are on record in US11053213B2, “Pharmaceutical compounds” (ALMAC DISCOVERY LIMITED, priority 2016, dated 2021).

Sequence of USP19 (O94966 whole entry): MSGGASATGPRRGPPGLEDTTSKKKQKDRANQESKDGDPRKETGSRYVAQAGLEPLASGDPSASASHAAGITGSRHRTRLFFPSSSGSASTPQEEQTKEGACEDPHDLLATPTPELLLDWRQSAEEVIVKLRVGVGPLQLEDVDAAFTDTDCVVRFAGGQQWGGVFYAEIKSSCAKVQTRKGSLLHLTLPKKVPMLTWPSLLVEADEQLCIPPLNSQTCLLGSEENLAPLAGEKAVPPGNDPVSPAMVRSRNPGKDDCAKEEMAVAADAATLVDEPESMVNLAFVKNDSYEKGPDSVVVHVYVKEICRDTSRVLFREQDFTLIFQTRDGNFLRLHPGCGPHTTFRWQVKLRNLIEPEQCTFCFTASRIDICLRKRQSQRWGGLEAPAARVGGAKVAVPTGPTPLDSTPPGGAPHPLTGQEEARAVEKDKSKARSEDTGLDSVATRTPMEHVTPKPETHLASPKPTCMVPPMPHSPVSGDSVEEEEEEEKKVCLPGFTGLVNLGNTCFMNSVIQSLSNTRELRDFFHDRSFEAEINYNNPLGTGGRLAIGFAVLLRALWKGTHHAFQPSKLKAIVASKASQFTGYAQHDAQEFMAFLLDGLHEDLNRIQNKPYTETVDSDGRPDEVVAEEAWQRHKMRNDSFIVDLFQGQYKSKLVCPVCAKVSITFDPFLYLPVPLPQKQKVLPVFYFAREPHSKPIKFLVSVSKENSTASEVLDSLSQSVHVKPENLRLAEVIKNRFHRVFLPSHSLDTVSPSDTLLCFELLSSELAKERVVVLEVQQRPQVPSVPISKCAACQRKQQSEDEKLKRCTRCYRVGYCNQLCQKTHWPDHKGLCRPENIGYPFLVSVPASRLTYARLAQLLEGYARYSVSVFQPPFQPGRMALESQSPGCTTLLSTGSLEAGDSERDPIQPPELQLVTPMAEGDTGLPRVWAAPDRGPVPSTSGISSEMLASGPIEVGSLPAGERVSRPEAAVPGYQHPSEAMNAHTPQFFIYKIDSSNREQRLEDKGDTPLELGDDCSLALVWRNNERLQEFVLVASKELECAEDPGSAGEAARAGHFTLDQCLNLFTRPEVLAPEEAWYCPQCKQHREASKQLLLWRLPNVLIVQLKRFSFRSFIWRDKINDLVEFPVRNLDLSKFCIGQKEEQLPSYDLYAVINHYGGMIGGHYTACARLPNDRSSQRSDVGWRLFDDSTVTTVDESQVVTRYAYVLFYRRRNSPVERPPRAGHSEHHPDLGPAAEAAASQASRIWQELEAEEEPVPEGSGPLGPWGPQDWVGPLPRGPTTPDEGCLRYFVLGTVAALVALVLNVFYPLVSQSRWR

The test addresses USP19 (Homo sapiens (Human), UniProt O94966). Kind of test: USP19 activity assay (fluorescence polarisation, Ubiquitin-Lys-TAMRA substrate). It is filed as biochemical. The following applies: full-length USP19 2.5 nM, 30 min pre-incubation, Ub substrate 500 nM; average of at least two duplicate experiments.
As usually defined, the IC50 is the concentration at which inhibition is half-maximal. On to `C[C@H](CC(F)(F)F)C(=O)N1CC[C@@](O)(Cn2cc(C(=O)N3CCNCC3)c(-c3ccccc3)cc2=O)C2(CCCC2)C1` [Example 217, 1-(((S)-10-Hydroxy-7-((R)-4,4,4-trifluoro-2-methylbutanoyl)-7-azaspiro[4.5]decan-10-yl)methyl)-4-phenyl-5-(piperazine-1-carbonyl)pyridin-2(1H)-one], for which the IC50 was under 500 nM.

Regarding `CN(C)C(=O)c1cn(C[C@]2(O)CCN(C(=O)C(CC(F)(F)F)CC(F)(F)F)CC23CCCC3)c(=O)cc1-c1ccccc1` [Example 218, (S)-1-((10-Hydroxy-7-(4,4,4-trifluoro-2-(2,2,2-trifluoroethyl)butanoyl)-7-azaspiro[4.5]decan-10-yl)methyl)-N,N-dimethyl-6-oxo-4-phenyl-1,6-dihydropyridine-3-carboxamide], the half-inhibitory concentration (IC50) was 500 to 5000 nM.

Turning to `O=C(c1cn(C[C@]2(O)CCN(C(=O)C(CC(F)(F)F)CC(F)(F)F)CC23CCCC3)c(=O)cc1-c1ccccc1)N1CCNCC1` [Example 219, (S)-1-((10-Hydroxy-7-(4,4,4-trifluoro-2-(2,2,2-trifluoroethyl)butanoyl)-7-azaspiro[4.5]decan-10-yl)methyl)-4-phenyl-5-(piperazine-1-carbonyl)pyridin-2(1H)-one], the IC50 fell in the range of 500 to 5000 nM.

Regarding `C[C@H](CC1CCCCC1)C(=O)N1CC[C@@](O)(Cn2cc(C(=O)N(C)C)c(C3CC3)cc2=O)C(C)(C)C1` [Example 220, 1-(((S)-1-((R)-3-Cyclohexyl-2-methylpropanoyl)-4-hydroxy-3,3-dimethylpiperidin-4-yl)methyl)-4-cyclopropyl-N,N-dimethyl-6-oxo-1,6-dihydropyridine-3-carboxamide], the IC50 lay within 500 to 5000 nM.

With `C[C@H](CC1CCCCC1)C(=O)N1CC[C@@](O)(Cn2cc(C(=O)N3CCNCC3)c(C3CC3)cc2=O)C(C)(C)C1` [Example 221, 1-(((S)-1-((R)-3-Cyclohexyl-2-methylpropanoyl)-4-hydroxy-3,3-dimethylpiperidin-4-yl)methyl)-4-cyclopropyl-5-(piperazine-1-carbonyl)pyridin-2(1H)-one], the concentration for half-maximal inhibition (IC50) lay in the range of 500 to 5000 nM.

Consider `C[C@H](CC1CCC1)C(=O)N1CC[C@@](O)(Cn2cc(C(=O)N(C)C)c(-c3ccccc3F)cc2=O)C2(CCCC2)C1` [Example 222, 1-(((S)-7-((R)-3-Cyclobutyl-2-methylpropanoyl)-10-hydroxy-7-azaspiro[4.5]decan-10-yl)methyl)-4-(2-fluorophenyl)-N,N-dimethyl-6-oxo-1,6-dihydropyridine-3-carboxamide], for which the half-inhibitory concentration (IC50) was under 500 nM.

For the compound `C[C@H](CC(F)(F)F)C(=O)N1CC[C@@](O)(Cn2cc(C(=O)N(C)C)c(-c3ccccc3F)cc2=O)C2(CCCC2)C1` [Example 223, 4-(2-Fluorophenyl)-1-(((S)-10-hydroxy-7-((R)-4,4,4-trifluoro-2-methylbutanoyl)-7-azaspiro[4.5]decan-10-yl)methyl)-N,N-dimethyl-6-oxo-1,6-dihydropyridine-3-carboxamide], the IC50 fell in the range of 500 to 5000 nM.

Take `C[C@H](CC1CCC1)C(=O)N1CC[C@@](O)(Cn2cc(C(=O)N3CCNCC3)c(-c3ccccc3F)cc2=O)C2(CCCC2)C1` [Example 224, 1-(((S)-7-((R)-3-Cyclobutyl-2-methylpropanoyl)-10-hydroxy-7-azaspiro[4.5]decan-10-yl)methyl)-4-(2-fluorophenyl)-5-(piperazine-1-carbonyl)pyridin-2(1H)-one]: the IC50 is under 500 nM.

With `C[C@H](CC(F)(F)F)C(=O)N1CC[C@@](O)(Cn2cc(C(=O)N3CCNCC3)c(-c3ccccc3F)cc2=O)C2(CCCC2)C1` [Example 225, 4-(2-Fluorophenyl)-1-(((S)-10-hydroxy-7-((R)-4,4,4-trifluoro-2-methylbutanoyl)-7-azaspiro[4.5]decan-10-yl)methyl)-5-(piperazine-1-carbonyl)pyridin-2(1H)-one], the IC50 lay in the range of 500 to 5000 nM.

On to `C[C@H](CC1CCCCC1)C(=O)N1CC[C@@](O)(Cn2cc(C(=O)N(C)C)c(-c3ccccc3F)cc2=O)C2(CCCC2)C1` [Example 226, 1-(((S)-7-((R)-3-Cyclohexyl-2-methylpropanoyl)-10-hydroxy-7-azaspiro[4.5]decan-10-yl)methyl)-4-(2-fluorophenyl)-N,N-dimethyl-6-oxo-1,6-dihydropyridine-3-carboxamide], for which the IC50 is under 500 nM.

`C[C@H](CC1CCCCC1)C(=O)N1CC[C@@](O)(Cn2cc(C(=O)N3CCNCC3)c(-c3ccccc3F)cc2=O)C2(CCCC2)C1` [Example 227, 1-(((S)-7-((R)-3-Cyclohexyl-2-methylpropanoyl)-10-hydroxy-7-azaspiro[4.5]decan-10-yl)methyl)-4-(2-fluorophenyl)-5-(piperazine-1-carbonyl)pyridin-2(1H)-one]: the IC50 was under 500 nM.

For the compound `C[C@H](CC1CCCCC1)C(=O)N1CC[C@@](O)(Cn2cc(C(=O)N3CCC(O)CC3)c(-c3ccccc3)cc2=O)C(C)(C)C1` [Example 228, 1-(((S)-1-((R)-3-Cyclohexyl-2-methylpropanoyl)-4-hydroxy-3,3-dimethylpiperidin-4-yl)methyl)-5-(4-hydroxypiperidine-1-carbonyl)-4-phenylpyridin-2(1H)-one], the concentration for half-maximal inhibition (IC50) was under 500 nM.

Consider `CN(C)C(=O)c1cn(CC2(O)CCN(C(=O)C3CC(C(F)(F)F)C3)CC23CCCC3)c(=O)cc1-c1ccccc1` (stereo not drawn) [Example 229, 1-((10-Hydroxy-7-(3-(trifluoromethyl)cyclobutane-1-carbonyl)-7-azaspiro[4.5]decan-10-yl)methyl)-N,N-dimethyl-6-oxo-4-phenyl-1,6-dihydropyridine-3-carboxamide], for which the IC50 was 5000 to 50000 nM.

In the case of `C[C@H](CC1CCC1)C(=O)N1CC[C@@](O)(Cn2cc(C(=O)N(C)C)c(C3CC3)cc2=O)C2(CCCC2)C1` [Example 230, 1-(((S)-7-((R)-3-Cyclobutyl-2-methylpropanoyl)-10-hydroxy-7-azaspiro[4.5]decan-10-yl)methyl)-4-cyclopropyl-N,N-dimethyl-6-oxo-1,6-dihydropyridine-3-carboxamide], the IC50 was in the range of 500 to 5000 nM.

With `C[C@H](CC1CCC1)C(=O)N1CC[C@@](O)(Cn2cc(C(=O)N3CCNCC3)c(C3CC3)cc2=O)C2(CCCC2)C1` [Example 231, 1-(((S)-7-((R)-3-Cyclobutyl-2-methylpropanoyl)-10-hydroxy-7-azaspiro[4.5]decan-10-yl)methyl)-4-cyclopropyl-5-(piperazine-1-carbonyl)pyridin-2(1H)-one], the IC50 lay in the range of 500 to 5000 nM.

Regarding `C[C@H](CC1CCCCC1)C(=O)N1CC[C@@](O)(Cn2cc(C(=O)N(C)C)c(C3CC3)cc2=O)C2(CCCC2)C1` [Example 232, 1-(((S)-7-((R)-3-Cyclohexyl-2-methylpropanoyl)-10-hydroxy-7-azaspiro[4.5]decan-10-yl)methyl)-4-cyclopropyl-N,N-dimethyl-6-oxo-1,6-dihydropyridine-3-carboxamide], the half-maximal inhibitory concentration (IC50) was under 500 nM.

As for `C[C@H](CC1CCCCC1)C(=O)N1CC[C@@](O)(Cn2cc(C(=O)N3CCNCC3)c(C3CC3)cc2=O)C2(CCCC2)C1` [Example 233, 1-(((S)-7-((R)-3-Cyclohexyl-2-methylpropanoyl)-10-hydroxy-7-azaspiro[4.5]decan-10-yl)methyl)-4-cyclopropyl-5-(piperazine-1-carbonyl)pyridin-2(1H)-one], the IC50 was under 500 nM.

For the compound `C[C@H](CC1CCCCC1)C(=O)N1CCC(O)(Cn2cc(C(=O)N(C)C)c(-c3ccccc3)cc2=O)C2(CCOCC2)C1` (stereo partly drawn) [Example 234, 1-((2-((R)-3-Cyclohexyl-2-methylpropanoyl)-5-hydroxy-9-oxa-2-azaspiro[5.5]undecan-5-yl)methyl)-N,N-dimethyl-6-oxo-4-phenyl-1,6-dihydropyridine-3-carboxamide], the IC50 lay within 500 to 5000 nM.

With `C[C@H](CC1CCC1)C(=O)N1CC[C@@](O)(Cn2cc(C(=O)N(C)C)c(-c3ccccc3F)cc2=O)C(C)(C)C1` [Example 235, 1-(((S)-1-((R)-3-Cyclobutyl-2-methylpropanoyl)-4-hydroxy-3,3-dimethylpiperidin-4-yl)methyl)-4-(2-fluorophenyl)-N,N-dimethyl-6-oxo-1,6-dihydropyridine-3-carboxamide], the IC50 was 500 to 5000 nM.

For `C[C@H](CC1CCC1)C(=O)N1CC[C@@](O)(Cn2cc(C(=O)N3CCNCC3)c(-c3ccccc3F)cc2=O)C(C)(C)C1` [Example 236, 1-(((S)-1-((R)-3-Cyclobutyl-2-methylpropanoyl)-4-hydroxy-3,3-dimethylpiperidin-4-yl)methyl)-4-(2-fluorophenyl)-5-(piperazine-1-carbonyl)pyridin-2(1H)-one], the IC50 is under 500 nM.

On to `C[C@H](CC1CCCCC1)C(=O)N1CCC(O)(Cn2cc(C(=O)N(C)C)c(-c3ccccc3)cc2=O)C2(CCCCC2)C1` (stereo partly drawn) [Example 237, 1-((2-((R)-3-Cyclohexyl-2-methylpropanoyl)-5-hydroxy-2-azaspiro[5.5]undecan-5-yl)methyl)-N,N-dimethyl-6-oxo-4-phenyl-1,6-dihydropyridine-3-carboxamide], for which the IC50 is under 500 nM.

On to `C[C@H](CC1CCCCC1)C(=O)N1CCC(O)(Cn2cc(C(=O)N3CCNCC3)c(-c3ccccc3)cc2=O)C2(CCCCC2)C1` (stereo partly drawn) [Example 238, 1-((2-((R)-3-Cyclohexyl-2-methylpropanoyl)-5-hydroxy-2-azaspiro[5.5]undecan-5-yl)methyl)-4-phenyl-5-(piperazine-1-carbonyl)pyridin-2(1H)-one], for which the concentration for half-maximal inhibition (IC50) was under 500 nM.

Turning to `C[C@H](CC1CCCCC1)C(=O)N1CC[C@@](O)(Cn2cc(C(=O)N3CCOCC3)c(-c3ccccc3)cc2=O)C2(CCCC2)C1` [Example 239, 1-(((S)-7-((R)-3-Cyclohexyl-2-methylpropanoyl)-10-hydroxy-7-azaspiro[4.5]decan-10-yl)methyl)-5-(morpholine-4-carbonyl)-4-phenylpyridin-2(1H)-one], the IC50 was under 500 nM.

Regarding `C[C@H](CC1CCCCC1)C(=O)N1CC[C@@](O)(Cn2cc(C(=O)N3CCN(C)CC3)c(-c3ccccc3)cc2=O)C2(CCCC2)C1` [Example 240, 1-(((S)-7-((R)-3-Cyclohexyl-2-methylpropanoyl)-10-hydroxy-7-azaspiro[4.5]decan-10-yl)methyl)-5-(4-methylpiperazine-1-carbonyl)-4-phenylpyridin-2(1H)-one], the 50% inhibitory concentration (IC50) is under 500 nM.
